Estrogenic activity data for five molecules are collected here from patent US11667809B2, “Adhesion promoters and compositions for containers and other articles” (SWIMC LLC, priority 2017, dated 2023).

Structures are written as SMILES. Read-outs that look alike come from different tables or passages of the source.

For series [1], the target named is T1, human estrogen receptor (Homo sapiens, UniProt P03372).
T1 sequence (P03372 1-595): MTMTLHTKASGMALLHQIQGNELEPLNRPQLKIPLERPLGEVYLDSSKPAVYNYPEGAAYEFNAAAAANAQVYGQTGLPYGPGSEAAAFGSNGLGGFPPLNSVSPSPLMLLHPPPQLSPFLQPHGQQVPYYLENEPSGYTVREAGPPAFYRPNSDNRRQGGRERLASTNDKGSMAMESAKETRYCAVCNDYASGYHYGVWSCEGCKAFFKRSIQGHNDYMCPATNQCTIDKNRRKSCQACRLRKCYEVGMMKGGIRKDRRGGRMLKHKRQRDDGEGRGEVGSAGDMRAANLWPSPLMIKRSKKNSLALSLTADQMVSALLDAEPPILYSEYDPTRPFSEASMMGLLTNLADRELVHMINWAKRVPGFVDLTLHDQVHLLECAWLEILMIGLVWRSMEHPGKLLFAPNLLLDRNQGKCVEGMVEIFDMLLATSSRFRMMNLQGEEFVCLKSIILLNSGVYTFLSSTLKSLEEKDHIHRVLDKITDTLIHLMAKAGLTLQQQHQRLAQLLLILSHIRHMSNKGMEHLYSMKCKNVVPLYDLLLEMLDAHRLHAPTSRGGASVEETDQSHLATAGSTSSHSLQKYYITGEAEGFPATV
Description: (§1) The MCF-7 assay uses MCF-7, clone WS8, cells to measure whether and to what extent a substance induces cell proliferation via estrogen receptor (ER)-mediated pathways.

The target of series [2] is T1, human estrogen receptor. In words: in vitro estrogenic activity assay correlated to the MCF-7 cell proliferation assay. Conditions: suitable in vitro assay whose results are directly correlated to the MCF-7 assay.
Description: as §1

In the case of `Cc1cc(Cc2cc(C)cc(C(C)(C)C)c2O)c(O)c(C(C)(C)C)c1` [2,2′-methylenebis(4-methyl-6-t-butylphenol)], in series [1], the estrogenic activity entry is recorded as “do not exhibit appreciable estrogenic activity”.

`CC(C)(C)c1cc(O)c(C(C)(C)C)cc1O` [2,5-di-t-butylhydroquinone]: the estrogenic activity entry in series [1] is listed as “do not exhibit appreciable estrogenic activity”. On to `CC(C)(C)c1cc(Cc2cc(C(C)(C)C)c(O)c(C(C)(C)C)c2)cc(C(C)(C)C)c1O` [4,4′-methylenebis(2,6-di-t-butylphenol)], for which the estrogenic activity entry in series [1] was “do not exhibit appreciable estrogenic activity”.

As to `Cc1cc(Cc2cc(C)c(O)c(C)c2)cc(C)c1O` [4,4′-methylenebis(2,6-dimethylphenol)], the estrogenic activity entry in series [2] was “do not exhibit appreciable estrogenic activity”.

For the molecule `CCCC(c1cc(C(C)(C)C)c(O)cc1C)c1cc(C(C)(C)C)c(O)cc1C` [4,4′butylidenebis(2-t-butyl-5-methylphenol)], the estrogenic activity entry in series [2] is reported as “do not exhibit appreciable estrogenic activity”.
